Laboratory results: ChEMBL document CHEMBL4014311, “Discovery of a Hepatitis C Virus NS5B Replicase Palm Site Allosteric Inhibitor (BMS-929075) Advanced to Phase 1 Clinical Studies” (J Med Chem, 2017)
Activity calls are given as the source filed them. The rule behind the calls is not given here.

Columns and labels:
[1] = Inhibition of HCV genotype 1b NS5B replicase expressed in Escherichia coli BL21(DE3) using polyA/biotinylated oligo(dT12) as template/primer in presence of [3H]UTP after 60 mins by SPA assay; design: species or system Hepatitis C virus subtype 1b
Hepatitis C virus [2] = assay: Antiviral activity against HCV genotype 1b infected in human HuH7 cells after 3 days by luciferase reporter assay; format: functional, cell-based, Hepacivirus hominis
Hepatitis C virus [3] = assay: Antiviral activity against HCV genotype 1a infected in human HuH7 cells after 3 days by luciferase reporter assay; format: functional, cell-based, Hepacivirus hominis, subtype 1a
[4] = Inhibition of HCV genotype 1b NS5B replicase C316N mutant infected in human HuH7 cells assessed as reduction of viral replication after 3 days by luciferase reporter assay; format: cell-based, Hepatitis C virus subtype 1b; details: Hepatitis C virus, Huh-7, 72 h
[5] = Half life in rat liver microsomes; format: ADME, microsome
[6] = Half life in monkey liver microsomes; format: ADME, Macaca mulatta, microsome; details: rhesus monkey
[7] = Cytotoxicity against human HuH7 cells after 3 days by CellTiter-Blue assay; format: cell-based, Huh-7
[8] = Metabolic stability in human liver microsomes assessed as parent compound remaining after 10 mins; format: ADME, microsome; details: read-out: Stability
[9] = Metabolic stability in rat liver microsomes assessed as parent compound remaining after 10 mins; format: ADME, microsome; details: read-out: Stability
[10] = Half life in human liver microsomes; format: ADME, microsome
Cytochrome P450 2C8 = target: T1, Cytochrome P450 2C8 (Homo sapiens, UniProt P10632); assay: Inhibition of microsomal CYP2C8 (unknown origin); format: ADME
T1 sequence (P10632 whole entry): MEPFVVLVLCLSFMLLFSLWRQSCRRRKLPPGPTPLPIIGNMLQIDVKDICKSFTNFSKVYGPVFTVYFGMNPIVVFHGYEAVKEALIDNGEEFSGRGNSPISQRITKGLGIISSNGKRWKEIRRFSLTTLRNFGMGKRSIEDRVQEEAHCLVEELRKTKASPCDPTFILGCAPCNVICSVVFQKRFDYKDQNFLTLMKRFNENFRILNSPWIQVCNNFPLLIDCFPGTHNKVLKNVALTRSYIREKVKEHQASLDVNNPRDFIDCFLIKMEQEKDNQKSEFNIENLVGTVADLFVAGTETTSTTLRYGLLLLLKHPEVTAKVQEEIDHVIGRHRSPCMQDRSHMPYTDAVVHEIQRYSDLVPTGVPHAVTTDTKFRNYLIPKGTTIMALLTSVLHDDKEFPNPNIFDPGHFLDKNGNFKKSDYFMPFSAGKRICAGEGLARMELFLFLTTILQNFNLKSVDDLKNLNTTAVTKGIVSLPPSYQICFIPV

Cytochrome P450 3A4 = Cytochrome P450 3A4 (Homo sapiens, UniProt P08684); assay: Inhibition of microsomal CYP3A4 (unknown origin); format: ADME
Hepatitis C virus [11] = assay: Antiviral activity against HCV genotype 1b infected in human HuH7 cells at >= 10 times antiviral EC50 after 3 days by luciferase reporter assay; format: functional, cell-based; details: Hepacivirus hominis
Hepatitis C virus [12] = assay: Antiviral activity against HCV genotype 1b infected in human HuH7 cells co-treated with daclatasvir after 3 days by luciferase reporter assay; format: functional, cell-based; details: Hepacivirus hominis
[13] = Hepatitis C virus, genotype 1b, Huh-7, 72 h, read-out: EC50
[14] = Hepatitis C virus, subtype 1a, Huh-7, 72 h, read-out: EC50

Chain of Cytochrome P450 3A4 (P08684 whole entry): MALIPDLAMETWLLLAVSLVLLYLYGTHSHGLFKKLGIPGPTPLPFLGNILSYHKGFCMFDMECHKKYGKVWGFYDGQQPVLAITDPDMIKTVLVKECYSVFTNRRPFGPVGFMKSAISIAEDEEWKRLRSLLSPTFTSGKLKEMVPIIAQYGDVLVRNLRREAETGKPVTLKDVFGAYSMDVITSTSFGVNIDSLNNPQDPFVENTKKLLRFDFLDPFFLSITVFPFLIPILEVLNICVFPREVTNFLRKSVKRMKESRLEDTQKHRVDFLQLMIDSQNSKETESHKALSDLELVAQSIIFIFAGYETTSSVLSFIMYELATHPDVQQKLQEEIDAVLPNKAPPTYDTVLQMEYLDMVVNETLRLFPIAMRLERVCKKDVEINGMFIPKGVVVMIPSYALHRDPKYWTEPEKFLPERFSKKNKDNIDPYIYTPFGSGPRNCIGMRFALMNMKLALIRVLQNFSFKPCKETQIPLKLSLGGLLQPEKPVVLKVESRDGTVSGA

Structure (SMILES): CNC(=O)c1c(-c2ccc(F)cc2)oc2ccc(-c3cccc(C(=O)NC4(c5ccccc5)CC4)c3)cc12
- IC50 [1]: 5.9 nM
- EC50 (Hepatitis C virus [2]; [13]): 3.6 nM
- EC50 (Hepatitis C virus [3]; [14]): 36 nM

Structure (SMILES): CNC(=O)c1c(-c2ccc(F)cc2)oc2ccc(-c3cccc(C(N)=O)c3)cc12
- IC50 [1]: 5700 nM
- EC50 (Hepatitis C virus [2]; [13]): > 3700 nM

Structure (SMILES): CNC(=O)c1c(-c2ccc(F)cc2)oc2ccc(-c3cc(C(=O)NC4(c5ccccc5)CC4)ccc3Cl)cc12
- EC50 [4]: 63 nM
- EC50 (Hepatitis C virus [2]; [13]): 2.5 nM
- EC50 (Hepatitis C virus [3]; [14]): 6.2 nM

Structure (SMILES): CNC(=O)c1c(-c2ccc(F)cc2)oc2ccc(-c3ccc(C(=O)O)cc3)cc12
- IC50 [1]: 650 nM
- EC50 (Hepatitis C virus [2]; [13]): 4500 nM
- EC50 (Hepatitis C virus [3]; [14]): > 20000 nM

Structure (SMILES): CNC(=O)c1c(-c2ccc(F)cc2)oc2ccc(-c3ccc(C(=O)NC(C)(C)C)cc3)cc12
- IC50 [1]: 3600 nM
- EC50 (Hepatitis C virus [2]; [13]): 980 nM

Structure (SMILES): CCNC(=O)c1cccc(-c2ccc3oc(-c4ccc(F)cc4)c(C(=O)NC)c3c2)c1
- IC50 [1]: 780 nM
- EC50 (Hepatitis C virus [2]; [13]): 330 nM
- EC50 (Hepatitis C virus [3]; [14]): 1000 nM

Structure (SMILES): CNC(=O)c1c(-c2ccc(F)cc2)oc2ccc(OC(C)C)cc12
- IC50 [1]: 21000 nM
- EC50 (Hepatitis C virus [2]; [13]): 14000 nM
- EC50 (Hepatitis C virus [3]; [14]): > 11000 nM

Structure (SMILES): CNC(=O)c1c(-c2ccc(F)cc2)oc2ccc(-c3cccc(C(=O)NC(C)(C)C)c3)cc12
- IC50 [1]: 41 nM
- EC50 (Hepatitis C virus [2]; [13]): 18 nM
- EC50 (Hepatitis C virus [3]; [14]): 240 nM

Structure (SMILES): CNC(=O)c1c(-c2ccc(F)cc2)oc2ccc(-c3cccc(C(=O)NC(C)(C)c4ccccc4)c3)cc12
- IC50 [1]: 8 nM
- EC50 (Hepatitis C virus [2]; [13]): 10 nM
- EC50 (Hepatitis C virus [3]; [14]): 160 nM

Structure (SMILES): CNC(=O)c1c(-c2ccc(F)cc2)oc2ccc(-c3cc(C(=O)NC4(c5nc(C)no5)CC4)ccc3C)cc12
- EC50 [4]: 46 nM
- EC50 (Hepatitis C virus [2]; [13]): 0.81 nM
- EC50 (Hepatitis C virus [3]; [14]): 1.2 nM
- half-life [5]: 10 min
- half-life [6]: 25 min

Structure (SMILES): CNC(=O)c1c(-c2ccc(F)cc2)oc2ccc(-c3ccc(C(=O)O)s3)cc12
- IC50 [1]: 360 nM

Structure (SMILES): CNC(=O)c1c(-c2ccc(F)cc2)oc2ccc(-c3cccc(CO)c3)cc12
- IC50 [1]: > 50000 nM

Structure (SMILES): CNC(=O)c1c(-c2ccc(F)cc2)oc2ccc(-c3cc(C(=O)NC4(c5ccccc5)CC4)ccc3F)cc12
- EC50 [4]: 150 nM
- EC50 (Hepatitis C virus [2]; [13]): 3.6 nM
- EC50 (Hepatitis C virus [3]; [14]): 16 nM

Structure (SMILES): CNC(=O)c1c(-c2ccc(F)cc2)oc2ccc(-c3cccc(C(=O)NCc4ccccc4)c3)cc12
- IC50 [1]: 91 nM
- EC50 (Hepatitis C virus [2]; [13]): 67 nM
- EC50 (Hepatitis C virus [3]; [14]): 1800 nM

Structure (SMILES): CNC(=O)c1c(-c2ccc(F)cc2)oc2ccc(-c3cccc(C(=O)NC(C)c4ccccc4)c3)cc12 (configuration not stated)
- IC50 [1]: 26 nM
- EC50 (Hepatitis C virus [2]; [13]): 54 nM
- EC50 (Hepatitis C virus [3]; [14]): 600 nM

Structure (SMILES): CNC(=O)c1c(-c2ccc(F)cc2)oc2ccc(-c3cc(C(=O)NC4(c5ccncn5)CC4)ccc3C)cc12
- EC50 [4]: 109 nM
- EC50 (Hepatitis C virus [2]; [13]): 1.9 nM
- EC50 (Hepatitis C virus [3]; [14]): 13 nM

Structure (SMILES): CNC(=O)c1c(-c2ccc(F)cc2)oc2ccc(-c3cc(C(=O)NC4(c5ccccc5)CC4)ccc3C)cc12
- CC50 at 72 h [7]: > 25000 nM
- EC50 [4]: 35 nM
- EC50 (Hepatitis C virus [2]; [13]): 1.3 nM
- EC50 (Hepatitis C virus [3]; [14]): 2.1 nM
- remaining at 10 min [8]: 68%
- remaining at 10 min [9]: 39%
- half-life [10]: 11 min
- IC50 (Cytochrome P450 2C8): 1500 nM
- IC50 (Cytochrome P450 3A4): 2100 nM

Structure (SMILES): CNC(=O)c1c(-c2ccc(F)cc2)oc2ccc(-c3cccc(C(=O)OC)c3)cc12
- IC50 [1]: > 50000 nM

Structure (SMILES): CNC(=O)c1c(-c2ccc(F)cc2)oc2ccc(-c3cc(C(=O)NC4(c5cnccn5)CC4)ccc3C)cc12
- EC50 [4]: 308 nM
- EC50 (Hepatitis C virus [2]; [13]): 2.6 nM
- EC50 (Hepatitis C virus [3]; [14]): 15 nM

Structure (SMILES): CNC(=O)c1c(-c2ccc(F)cc2)oc2ccc(-c3cccc(C(=O)N(C)C(C)(C)C)c3)cc12
- IC50 [1]: 120 nM
- EC50 (Hepatitis C virus [2]; [13]): 76 nM
- EC50 (Hepatitis C virus [3]; [14]): 1400 nM

Structure (SMILES): CNC(=O)c1c(-c2ccc(F)cc2)oc2ccc(-c3cc(C(=O)NC4(c5ccccc5)CC4)ccc3OC)cc12
- EC50 [4]: 32 nM
- EC50 (Hepatitis C virus [2]; [13]): 1.8 nM
- EC50 (Hepatitis C virus [3]; [14]): 7.9 nM

Structure (SMILES): CNC(=O)c1c(-c2ccc(F)cc2)oc2ccc(-c3cc(C(=O)NC4(c5cccnc5)CC4)ccc3C)cc12
- EC50 [4]: 193 nM
- EC50 (Hepatitis C virus [2]; [13]): 2.2 nM
- EC50 (Hepatitis C virus [3]; [14]): 17 nM
- remaining at 10 min [8]: 0.7%
- remaining at 10 min [9]: 0.6%
- IC50 (Cytochrome P450 2C8): 350 nM
- IC50 (Cytochrome P450 3A4): 63 nM

Structure (SMILES): O=C(Nc1c(OCc2ccc(Cl)cc2)cccc1C(=O)O)c1ccccc1
- IC50 [1]: 8400 nM
- EC50 (Hepatitis C virus [2]): Not Active
- EC50 (Hepatitis C virus [3]): Not Active

Structure (SMILES): CNC(=O)c1c(-c2ccc(F)cc2)oc2ccc(-c3ccccc3C(=O)O)cc12
- IC50 [1]: > 50000 nM

Structure (SMILES): CNC(=O)c1c(-c2ccc(F)cc2)oc2ccc(-c3cc(C(=O)NC4(c5ccncc5)CC4)ccc3C)cc12
- EC50 [4]: 63 nM
- EC50 (Hepatitis C virus [2]; [13]): 0.83 nM
- EC50 (Hepatitis C virus [3]; [14]): 8.3 nM
- remaining at 10 min [8]: 11%
- remaining at 10 min [9]: 11%
- IC50 (Cytochrome P450 2C8): 26 nM
- IC50 (Cytochrome P450 3A4): 73 nM

Structure (SMILES): C=C[C@@H]1C[C@]1(NC(=O)[C@@H]1C[C@@H](Oc2ncc(OC)c3ccc(Cl)cc23)CN1C(=O)[C@@H](NC(=O)OC(C)(C)C)C(C)(C)C)C(=O)NS(=O)(=O)C1CC1
- Activity (Hepatitis C virus [11]): Active
- Activity (Hepatitis C virus [12]): Active

Structure (SMILES): CNC(=O)c1c(-c2ccc(F)cc2)oc2ccc(-c3cccc(C(=O)O)c3)cc12
- IC50 [1]: 1100 nM
- EC50 (Hepatitis C virus [2]; [13]): 12000 nM
- EC50 (Hepatitis C virus [3]; [14]): > 20000 nM

Structure (SMILES): CNC(=O)c1c(-c2ccc(F)cc2)oc2ccc(-c3cccc(C(=O)NC(C)C)c3)cc12
- IC50 [1]: 190 nM
- EC50 (Hepatitis C virus [2]; [13]): 98 nM
- EC50 (Hepatitis C virus [3]; [14]): 630 nM

Structure (SMILES): CNC(=O)c1c(-c2ccc(F)cc2)oc2ccc(-c3cc(C(=O)NC4(c5cccnn5)CC4)ccc3C)cc12
- EC50 [4]: 139 nM
- EC50 (Hepatitis C virus [2]; [13]): 2.9 nM
- EC50 (Hepatitis C virus [3]; [14]): 17 nM
